Our source for the IC50 values is US20220056043A1, “NITROGEN-CONTAINING FUSED CYCLIC COMPOUND, PREPARATION METHOD THEREFOR AND USE THEREOF” (SICHUAN KELUN-BIOTECH BIOPHARMACEUTICAL CO., LTD., priority 2019, published 2022).

The term IC50 denotes the concentration that inhibits the measured activity by half.

The experiment has as its target hERG potassium channel (Homo sapiens, UniProt Q12809). Put plainly: hERG test, Predictor hERG Fluorescence Polarization Assay Kit. Set-up: expressed in transfected cells; host or cells: HEK-293. The experiment is classed as binding. The following applies: test concentrations 1 μM and 10 μM. From the text:
Experimental Example 5: hERG Test
1. Predictor™ hERG Fluorescence Polarization Assay Kit (ThermoFisher) was used to test the inhibitory effect of the compounds on hERG potassium channel according to the instructions of the kit.

Chain of hERG potassium channel (Q12809 whole entry): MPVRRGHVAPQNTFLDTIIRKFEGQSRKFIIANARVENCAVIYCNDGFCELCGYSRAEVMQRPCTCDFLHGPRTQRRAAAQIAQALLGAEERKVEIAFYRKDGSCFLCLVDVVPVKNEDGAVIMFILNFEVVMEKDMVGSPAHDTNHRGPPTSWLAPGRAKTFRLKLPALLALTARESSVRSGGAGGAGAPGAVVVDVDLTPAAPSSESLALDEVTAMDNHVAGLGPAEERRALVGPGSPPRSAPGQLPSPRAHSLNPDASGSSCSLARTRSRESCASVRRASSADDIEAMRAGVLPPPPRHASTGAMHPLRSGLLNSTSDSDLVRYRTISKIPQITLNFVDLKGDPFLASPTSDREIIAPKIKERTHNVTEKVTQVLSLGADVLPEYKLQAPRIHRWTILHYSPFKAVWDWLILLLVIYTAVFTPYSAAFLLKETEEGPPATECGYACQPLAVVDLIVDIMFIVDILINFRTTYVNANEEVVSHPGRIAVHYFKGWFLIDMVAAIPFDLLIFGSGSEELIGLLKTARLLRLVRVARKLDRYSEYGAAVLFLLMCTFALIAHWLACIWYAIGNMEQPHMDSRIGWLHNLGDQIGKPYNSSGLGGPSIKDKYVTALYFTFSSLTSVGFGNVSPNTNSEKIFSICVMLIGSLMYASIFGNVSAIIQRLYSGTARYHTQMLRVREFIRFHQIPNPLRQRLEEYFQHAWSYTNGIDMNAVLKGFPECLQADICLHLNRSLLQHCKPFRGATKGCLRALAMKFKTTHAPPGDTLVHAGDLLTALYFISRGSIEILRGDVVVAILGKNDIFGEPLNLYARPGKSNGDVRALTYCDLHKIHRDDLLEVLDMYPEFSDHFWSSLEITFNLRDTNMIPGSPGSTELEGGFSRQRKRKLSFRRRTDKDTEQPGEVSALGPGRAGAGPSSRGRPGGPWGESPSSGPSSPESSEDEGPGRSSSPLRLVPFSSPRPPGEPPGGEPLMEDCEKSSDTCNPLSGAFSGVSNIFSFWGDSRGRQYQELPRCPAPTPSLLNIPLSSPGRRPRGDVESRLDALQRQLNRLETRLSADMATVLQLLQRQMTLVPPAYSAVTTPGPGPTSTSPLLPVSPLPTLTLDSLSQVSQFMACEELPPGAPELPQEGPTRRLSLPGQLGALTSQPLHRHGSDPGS

With `COC(C)(C)CNc1cc(N)nc2cc(-c3ccn[nH]3)sc12` [Compound 111, N^7-(2′-methoxy-2′-methylpropyl)-2-(1H-pyrazol-5-yl)thieno[3,2-b]pyridine-5,7-diamine], the IC50 is greater than 10 µM.
For `Nc1cc(NC2COC2)c2sc(-c3ccn[nH]3)cc2n1` [Compound 112, N^7-(oxetan-3-yl)-2-(1H-pyrazol-5-yl)thieno[3,2-b]pyridine-5,7-diamine] the value was greater than 10 µM.
